Measured values published in patent US11000033B2, “Ketone or oxime compound, and herbicide” (NISSAN CHEMICAL CORPORATION, priority 2014, dated 2021).

What was measured:
Assay type in all cases: in vivo
[1] = test system: Alopecurus myosuroides; experiment: Test Example 4: herbicidal effect by soil treatment (symbol J); conditions: application herbicide amount 320 g/ha
In short: (§1)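 Seeds were sown in sterilized diluvial soil, covered with about 1.5 cm of soil, and the soil surface was sprayed with a water-diluted emulsion of the compound at a predetermined rate. Plants grew in a greenhouse at 25° C. to 30° C.; effects were scored visually 3 weeks after application.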

[2] = test system: soybean; experiment: Test Example 5: effect on crop by foliage application, plastic box (symbol d); conditions: 320 g/ha, 3 weeks after application
In short: (§2)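 Seeds were sown in spots in sterilized diluvial soil held in a plastic box 21 cm × 13 cm × 7 cm deep, covered with about 1.5 cm of soil, and grown in a greenhouse at 25° C. to 30° C.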

[3] = test system: Stellaria media; experiment: Test Example 4: herbicidal effect by soil treatment (symbol P); conditions: application herbicide amount 320 g/ha
In short: as §1

[4] = test system: Echinochloa crus-galli var. crus-galli; experiment: Test Example 3: herbicidal effect by foliage application, Wagner pot (symbol H); conditions: application herbicide amount 320 g/ha
In short: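 Weeds and rice were sown in alluvial soil under 0.1–0.5 cm of standing water and grown for 14 days in a 25–30 °C greenhouse. An emulsion of the compound, diluted in water to a set dose, was sprayed evenly onto the foliage. Effect was scored against fixed criteria 3 weeks after treatment.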

[5] = test system: Amaranthus retroflexus; experiment: Test Example 4: herbicidal effect by soil treatment (symbol N); conditions: application herbicide amount 320 g/ha
In short: as §1

[6] = test system: directly sowed rice plant; experiment: Test Example 3: effect on crop by foliage application, Wagner pot (symbol b); conditions: application herbicide amount 320 g/ha
In short: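 Plants are raised from seed in flooded paddy conditions: water stands 0.1–0.5 cm over alluvial soil, and the pot is kept in a greenhouse at 25–30 °C. Species sown are barnyardgrass (E. crus-galli var. crus-galli), Leptochloa chinensis, Cyperus difformis and rice.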

[7] = test system: Apera spica-venti; experiment: Test Example 4: herbicidal effect by soil treatment (symbol L); conditions: application herbicide amount 320 g/ha
In short: as §1

[8] = test system: Monochoria vaginalis; experiment: Test Example 1: herbicidal activity, application before weed generation in submerged conditions (symbol C); conditions: application herbicide amount 320 g/ha
In short: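 Flooded alluvial soil (4 cm water) was mixed-sown with the three weed species, and 2.5-leaf rice seedlings were transplanted. On sowing day, a water-diluted emulsion at a predetermined rate was applied to the water surface. After 3 weeks in a 25–30 °C greenhouse, effect was scored 0–5.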

[9] = test system: corn; experiment: Test Example 4: effect on crop by soil treatment (symbol c); conditions: application herbicide amount 320 g/ha
In short: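 Grown at 25° C. to 30° C. in a greenhouse, the crops came from seed sown spot-wise in sterilized diluvial soil under roughly 1.5 cm of covering soil.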

[10] = test system: Lolium multiflorum Lam.; experiment: Test Example 4: herbicidal effect by soil treatment (symbol K); conditions: application herbicide amount 320 g/ha
In short: as §1

[11] = test system: Abutilon theophrasti; experiment: Test Example 5: herbicidal effect by foliage application, plastic box (symbol M); conditions: 320 g/ha, 3 weeks after application
In short: (§3)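 Effect is rated 3 weeks after a foliar spray of water-diluted emulsion concentrate at a predetermined herbicide amount. Plants had grown 14 days in a 25° C. to 30° C. greenhouse from seed in sterilized diluvial soil.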

[12] = test system: Veronica persica; experiment: Test Example 5: herbicidal effect by foliage application, plastic box (symbol R); conditions: 320 g/ha, 3 weeks after application
In short: as §3

[13] = test system: Chenopodium album; experiment: Test Example 5: herbicidal effect by foliage application, plastic box (symbol O); conditions: 320 g/ha, 3 weeks after application
In short: as §3

[14] = test system: Setaria viridis; experiment: Test Example 5: herbicidal effect by foliage application, plastic box (symbol G); conditions: 320 g/ha, 3 weeks after application
In short: as §3

[15] = test system: Echinochloa crus-galli var. crus-galli; experiment: Test Example 5: herbicidal effect by foliage application, plastic box (symbol H); conditions: 320 g/ha, 3 weeks after application
In short: as §3

[16] = test system: wheat; experiment: Test Example 5: effect on crop by foliage application, plastic box (symbol e); conditions: 320 g/ha, 3 weeks after application
In short: as §2

SMILES | J (Alopecurus myosuroides) herbicidal effect grade [1] | d: soybean, effect on crop grade [2] | P (Stellaria media) herbicidal effect grade [3] | herbicidal effect on H (Echinochloa crus-galli var. crus-galli), grade 0-5 [4] | N (Amaranthus retroflexus) herbicidal effect grade [5] | effect on crop b (directly sowed rice plant), grade 0-5 [6] | L (Apera spica-venti) herbicidal effect grade [7] | Herbicidal effect grade, J: Alopecurus myosuroides [1] | d: soybean, effect on crop (criteria of Test Example 1) [2] | Herbicidal effect grade, P: Stellaria media [3] | Herbicidal effect grade, N: Amaranthus retroflexus [5] | Herbicidal effect grade, L: Apera spica-venti [7] | Effect on crop grade, c: corn [9] | Herbicidal effect grade, K: Lolium multiflorum Lam. [10] | M: Abutilon theophrasti, herbicidal effect (criteria of Test Example 1) [11] | R: Veronica persica, herbicidal effect (criteria of Test Example 1) [12] | O: Chenopodium album, herbicidal effect (criteria of Test Example 1) [13] | G: Setaria viridis, herbicidal effect (criteria of Test Example 1) [14] | H: Echinochloa crus-galli var. crus-galli, herbicidal effect (criteria of Test Example 1) [15] | e: wheat, effect on crop (criteria of Test Example 1) [16] | further results
CON=C(C)CC1CC(OC)=C(c2c(C)cc(C)cc2C)C1=O (stereo not shown) [1-001, 2-mesityl-3-methoxy-5-{2-(methoxyimino)propyl}cyclopent-2-enone] | 0 (Herbicidal ratio of 5% or lower (almost no effect)) | 0 (Herbicidal ratio of 5% or lower (almost no effect)) | 0 (Herbicidal ratio of 5% or lower (almost no effect)) | 0 (Herbicidal ratio of 5% or lower (almost no effect)) | 0 (Herbicidal ratio of 5% or lower (almost no effect)) | 0 (Herbicidal ratio of 5% or lower (almost no effect)) | 0 (Herbicidal ratio of 5% or lower (almost no effect)) |  |  |  |  |  |  |  |  |  |  |  |  |  | Herbicidal effect grade, C: Monochoria vaginalis [8]: 0 (Herbicidal ratio of 5% or lower (almost no effect)); c (corn) effect on crop grade [9]: 0 (Herbicidal ratio of 5% or lower (almost no effect)); K (Lolium multiflorum Lam.) herbicidal effect grade [10]: 0 (Herbicidal ratio of 5% or lower (almost no effect)); M: Abutilon theophrasti, herbicidal effect grade [11]: 0 (Herbicidal ratio of 5% or lower (almost no effect)); R: Veronica persica, herbicidal effect grade [12]: 0 (Herbicidal ratio of 5% or lower (almost no effect)); O: Chenopodium album, herbicidal effect grade [13]: 0 (Herbicidal ratio of 5% or lower (almost no effect)); G: Setaria viridis, herbicidal effect grade [14]: 0 (Herbicidal ratio of 5% or lower (almost no effect)); H: Echinochloa crus-galli var. crus-galli, herbicidal effect grade [15]: 0 (Herbicidal ratio of 5% or lower (almost no effect)); e: wheat, effect on crop grade [16]: 0 (Herbicidal ratio of 5% or lower (almost no effect))
CON=C(C)CC1CC(OC(=O)COc2ccc(C)cc2)=C(c2c(C)cc(C)cc2C)C1=O (stereo not shown) [1-072] | 5 (Herbicidal ratio of 90% or more (almost completely withered)) | 2 (Herbicidal ratio of 20% or higher and lower than 40%) | 0 (Herbicidal ratio of 5% or lower (almost no effect)) | 4 (Herbicidal ratio of 70% or higher and lower than 90%) | 5 (Herbicidal ratio of 90% or more (almost completely withered)) | 5 (Herbicidal ratio of 90% or more (almost completely withered)) | 5 (Herbicidal ratio of 90% or more (almost completely withered)) |  |  |  |  |  |  |  |  |  |  |  |  |  | c (corn) effect on crop grade [9]: 5 (Herbicidal ratio of 90% or more (almost completely withered)); K (Lolium multiflorum Lam.) herbicidal effect grade [10]: 5 (Herbicidal ratio of 90% or more (almost completely withered)); M: Abutilon theophrasti, herbicidal effect grade [11]: 5 (Herbicidal ratio of 90% or more (almost completely withered)); R: Veronica persica, herbicidal effect grade [12]: 3 (Herbicidal ratio of 40% or higher and lower than 70%); O: Chenopodium album, herbicidal effect grade [13]: 1 (Herbicidal ratio of 5% or higher and lower than 20%); G: Setaria viridis, herbicidal effect grade [14]: 5 (Herbicidal ratio of 90% or more (almost completely withered)); H: Echinochloa crus-galli var. crus-galli, herbicidal effect grade [15]: 5 (Herbicidal ratio of 90% or more (almost completely withered)); e: wheat, effect on crop grade [16]: 5 (Herbicidal ratio of 90% or more (almost completely withered))
CC(=O)CC1CC(O)=C(c2c(C)cc(Oc3ccccc3)cc2C)C1=O (stereo not shown) [7-014] |  |  |  | 4 (Herbicidal ratio of 70% or higher and lower than 90%) |  | 5 (Herbicidal ratio of 90% or more (almost completely withered)) |  | 0 (Herbicidal ratio of 5% or lower (almost no effect)) | 0 (Herbicidal ratio of 5% or lower (almost no effect)) | 0 (Herbicidal ratio of 5% or lower (almost no effect)) | 0 (Herbicidal ratio of 5% or lower (almost no effect)) | 0 (Herbicidal ratio of 5% or lower (almost no effect)) | 0 (Herbicidal ratio of 5% or lower (almost no effect)) | 3 (Herbicidal ratio of 40% or higher and lower than 70%) | 0 (Herbicidal ratio of 5% or lower (almost no effect)) | 0 (Herbicidal ratio of 5% or lower (almost no effect)) | 0 (Herbicidal ratio of 5% or lower (almost no effect)) | 0 (Herbicidal ratio of 5% or lower (almost no effect)) | 5 (Herbicidal ratio of 90% or more (almost completely withered)) | 0 (Herbicidal ratio of 5% or lower (almost no effect)) | 
CC(=O)CC1CC(O)=C(c2c(C)cc(-c3ccc(OC(F)(F)F)cc3)cc2C)C1=O (stereo not shown) [7-016] |  |  |  | 0 (Herbicidal ratio of 5% or lower (almost no effect)) |  | 0 (Herbicidal ratio of 5% or lower (almost no effect)) |  | 0 (Herbicidal ratio of 5% or lower (almost no effect)) | 0 (Herbicidal ratio of 5% or lower (almost no effect)) | 0 (Herbicidal ratio of 5% or lower (almost no effect)) | 0 (Herbicidal ratio of 5% or lower (almost no effect)) | 0 (Herbicidal ratio of 5% or lower (almost no effect)) | 0 (Herbicidal ratio of 5% or lower (almost no effect)) | 0 (Herbicidal ratio of 5% or lower (almost no effect)) | 0 (Herbicidal ratio of 5% or lower (almost no effect)) | 0 (Herbicidal ratio of 5% or lower (almost no effect)) | 0 (Herbicidal ratio of 5% or lower (almost no effect)) | 1 (Herbicidal ratio of 5% or higher and lower than 20%) | 1 (Herbicidal ratio of 5% or higher and lower than 20%) | 0 (Herbicidal ratio of 5% or lower (almost no effect)) | 
CC(=O)CC1CC(O)=C(c2c(C)cc(-c3ncccn3)cc2C)C1=O (stereo not shown) [7-017] |  |  |  | 5 (Herbicidal ratio of 90% or more (almost completely withered)) |  | 5 (Herbicidal ratio of 90% or more (almost completely withered)) |  | 0 (Herbicidal ratio of 5% or lower (almost no effect)) | 0 (Herbicidal ratio of 5% or lower (almost no effect)) | 0 (Herbicidal ratio of 5% or lower (almost no effect)) | 0 (Herbicidal ratio of 5% or lower (almost no effect)) | 0 (Herbicidal ratio of 5% or lower (almost no effect)) | 0 (Herbicidal ratio of 5% or lower (almost no effect)) | 0 (Herbicidal ratio of 5% or lower (almost no effect)) | 0 (Herbicidal ratio of 5% or lower (almost no effect)) | 0 (Herbicidal ratio of 5% or lower (almost no effect)) | 0 (Herbicidal ratio of 5% or lower (almost no effect)) | 5 (Herbicidal ratio of 90% or more (almost completely withered)) | 5 (Herbicidal ratio of 90% or more (almost completely withered)) | 0 (Herbicidal ratio of 5% or lower (almost no effect)) | 
